Data reported in patent publication US20030026831A1, “Anionic liposomes for delivery of bioactive agents” (priority 2001, published 2003).
{Cy3} = Cy3 fluorescent dye label

Columns and labels:
[1] = test system: hippocampal neurons; assay: Neuronal calcium (Fura-2) during perfusion of liposomes; format: cell-based, rat; conditions: continuous perfusion of N-Rh-DOPE labeled liposomes; 100 μM NMDA as positive stimulus
Protocol: FIG. 4. […] (a) Neurons were treated with 100 μg/ml heparin prior to incubation with AL-Cy3ON. Scale bar: 5 μm. (b) Fura-2 ratios in hippocampal neurons were not altered during perfusion of anionic liposomes labeled with N—Rh-DOPE but increased in response to 100 μM NMDA. Data were from a representative field of 23 neurons from among 110 neurons imaged in 5 experiments. (c) Image taken at 24 min (*) indicated the uptake of N-Rh-DOPE within the same neurons in the field.
Addition of activated a2-M (a2-M*) to cortical neurons caused a Ca^2+ influx that was both spatially and temporally discrete. […] To examine whether the endocytosis of anionic liposomes via LRP caused Ca^2+ influx into neurons, neuronal calcium currents were studied during a continuous perfusion of liposomes labeled with N—Rh-DOPE.
Liposomes labeled with N—Rh-DOPE were prepared in a manner identical to that described in Example 1 for liposomes encapsulating Cy3ONs except that the lipid films contained 1-2.5 mole percent N—Rh-DOPE and the liposomes were prepared with buffer alone (i.e., without ONs).

[2] = test system: hippocampal neurons; assay: Colocalization with transferrin (early and recycling endosomes); format: cell-based, rat; conditions: delivered in anionic liposomes
Protocol: (§1) Colocalization of Lipids and Oligonucleotides with Transferrin and Dextran. Intracellular fates of endocytosed liposomes and ONs were determined by comparing their intracellular distributions with that of Oregon Green 488-Transferrin (OG-Tf) and Alexa488-dextran (Molecular Probes, Eugene, Oreg.) used as markers for the recycling and lysosomal compartments, respectively. Neurons were incubated with AL-Cy3ONs and either 100 μg/ml OG-Tf, for 30 minutes, 1 hour or 3 hours; or with 1 mg/ml Alexa488-dextran for 3 hours. For the lipid transport experiments, neurons were incubated with liposomes labeled with N—Rh-DOPE and either OG-TF, for 30 minutes, 1 hour, or 3 hours; or with 1 mg/ml Alexa-dextran for 3 hours. In another set of experiments, neurons were incubated with AL-Cy3ONs for 30 minutes, rinsed and chased with 1 mg/ml Alexa 488 dextran for 3 hours. Cells were rinsed and fixed for imaging as described above.
(§2) Confocal Microscopy and Image Analysis. Imaging was performed on a Leica TCS 4D confocal microscope (Deerfield, Ill.) equipped with a Mercury/Xenon lamp and argon/krypton laser. Cells were excited using the 488 nm laser line to detect Oregon Green 488-Transferrin and Alexa488-Dextran, and the emitted fluorescence was collected using a 515 long-pass filter. The 568 nm laser line was used to excite Cy3 and N—Rh-DOPE (LP590 emission). Cells were imaged at a plane midway between the substrate-attached plasma membrane and the top of the cell, such that neuronal nuclei were clearly identifiable. In some cases, the entire volume of the cell was scanned in 0.5 μm increments. Optimal images were obtained by averaging 16 images in the line-scan mode at the same fixed gains for all experiments. All fluorescent images presented in figures were equally contrast enhanced using ADOBE PHOTOSHOP (Adobe, Mountain View, Calif.).
(§3) All image analysis was performed using the METAMORPH Imaging System software (Universal Imaging, Downington, Pa.). The cell outlines for each set of double-labeled fields were traced out manually in the corresponding differential interference contrast image and then used to mask the fluorescence images. In each cell, the total fluorescence intensity was measured and the percent of Cy3 label or rhodamine label that colocalized with transferrin or dextran was calculated.

[3] = test system: hippocampal neurons; assay: Colocalization with dextran (late endosomes and lysosomes); format: cell-based, rat; conditions: 3 h, delivered in anionic liposomes
Protocol: as §1
as §2, with “Optimal images were obtained by averaging 16 images in the line-scan mode at the same fixed gains for all experiments. All fluorescent images presented in figures were equally contrast enhanced using ADOBE PHOTOSHOP (Adobe, Mountain View, Calif.).” left out
as §3

[4] = test system: Mouse embryonic fibroblasts (MEF-1); assay: Uptake of Cy3-ONs by LRP-expressing MEF-1 cells; format: cell-based; conditions: 1 μM Cy3-ONs, 1 h at 37° C.
Protocol: (§4) The ability of this delivery system to deliver DNA to cell types other than neurons was investigated by studying uptake of Cy3-oligonucleotides delivered by anionic DOPC/DOPG liposomes in cells derived from a variety of tissues. CHO, HeLa, HuH-7, MDCK and MEF-1 cells all avidly internalized AL-Cy3ONs within 1 h of incubation (FIG. 2). Uptake of AL-Cy3ONs occurred in the presence of serum in the culture medium. Similar to the uniform uptake seen in primary neurons, Cy3 fluorescence was visible in almost all cells exposed to AL-Cy3ONs in all cell types studied (Table 1). On the other hand, uptake of Cy3ON either without a delivery vector or complexed to cationic DC-Chol/DOPE liposomes was cell type-dependent, ranging from ˜5% in MDCK cells to ˜50% in HeLa cells (Table 1).
The endocytosis of AL-Cy3ONs in immortalized mouse embryonic fibroblast cell lines that expressed LRP (MEF-1) was compared to endocytosis of AL-Cy3ONs in immortalized mouse embryonic fibroblast cell lines that lacked the receptor (PEA-13).

[5] = test system: Primary rat hippocampal neurons; assay: Uptake of Cy3-ONs by hippocampal neurons; format: cell-based
Protocol: Hippocampal Cell Culture. Primary cultures of hippocampal neurons were prepared from neonatal rat pups (P1 or P2) as previously described (Dubinsky, 1993). Neurons were plated onto 22-mm square glass coverslips coated with collagen and polylysine, at a density of 150,000 cells per coverslip. Neurons were cultured for 24-30 hours in minimum essential medium (MEM) with 10% NUSERUM (Collaborative Research) to increase attachment to the glass substrate, after which the growing medium was replaced with Neurobasal medium with B27 supplements (Life Technologies, Rockville, Md.). Fluorodeoxyuridine (15 μg/ml) was added to restrict the growth of non-neuronal cells. Cultures were maintained at 37° C. in a humidified atmosphere containing 5% CO2 for 6-9 days before use.
Uptake of Cy3-ONs by hippocampal neurons. […] Uninternalized ONs, liposomes or complexes were removed by several washes with L15 (Leibovitz's) medium. Cells were then fixed in 4% paraformaldehyde for 15 minutes at room temperature. For low temperature studies, neurons were incubated at 4° C. with AL-Cy3ONs for 10 minutes and then fixed. The cells were imaged immediately after fixation to avoid a potential redistribution of ONs (Grzanna et al., 1998).
as §2, with “All fluorescent images presented in figures were equally contrast enhanced using ADOBE PHOTOSHOP (Adobe, Mountain View, Calif.).” left out

[6] = test system: Human hepatoma (Huh-7); assay: Uptake of Cy3-ONs by Huh-7 cells; format: cell-based; conditions: 1 μM Cy3-ONs, 1 h at 37° C.
Protocol: as §4

[7] = test system: Canine kidney cell line (MDCK); assay: Uptake of Cy3-ONs by MDCK cells; format: cell-based; conditions: 1 μM Cy3-ONs, 1 h at 37° C.
Protocol: as §4

[8] = test system: Human cervical carcinoma (HeLa); assay: Uptake of Cy3-ONs by HeLa cells; format: cell-based; conditions: 1 μM Cy3-ONs, 1 h at 37° C.
Protocol: as §4

[9] = test system: Chinese hamster ovary cell line (CHO-K1); assay: Uptake of Cy3-ONs by CHO-K1 cells; format: cell-based; conditions: 1 μM Cy3-ONs, 1 h at 37° C.
Protocol: as §4

Molecule	Calcium response (Fura-2 ratios) in hippocampal neurons [1]	Percent colocalization with Transferrin ([2]; 30 min)	Percent colocalization with Transferrin ([2]; 1 h)	Percent colocalization with Dextran [3]	Percent of cells with intracellular Cy3 fluorescence [4]	Percent colocalization with Transferrin ([2]; 30 min, listed as Cy3ON)	Percent colocalization with Transferrin ([2]; 30 min, listed as Cy3ONs)	Percent colocalization with Transferrin ([2]; 3 h, listed as Cy3ON)	Percent colocalization with Transferrin ([2]; 3 h, listed as Cy3ONs)	Uptake of Cy3-ONs by neurons ([5]; 1 μM Cy3-ONs, 1 h, serum-containing medium)	Neuronal Cy3 fluorescence ([5]; 2 μM Cy3ONs, 30 minutes at 37° C.)	Percent of cells with intracellular Cy3 fluorescence ([5]; Primary rat hippocampal neurons, 1 μM Cy3-ONs, 1 h at 37° C.)	Percent of cells with intracellular Cy3 fluorescence [6]	Percent of cells with intracellular Cy3 fluorescence [7]	Percent colocalization with Dextran ([3]; listed as Cy3ON)	Percent colocalization with Dextran ([3]; listed as Cy3ONs)	Percent of cells with intracellular Cy3 fluorescence [8]	Percent of cells with intracellular Cy3 fluorescence ([8]; listed as Cy3ON without a delivery vector)	Percent of cells with intracellular Cy3 fluorescence [9]
CN[C@H](CC(=O)O)C(=O)O [NMDA]	increased	–	–	–	–	–	–	–	–	–	–	–	–	–	–	–	–	–	–
Lissamine Rhodamine DOPE [N-Rh-DOPE]	–	45.56 ± 2.2%	51.88 ± 2.7%	22.18 ± 1.5%	–	–	–	–	–	–	–	–	–	–	–	–	–	–	–
Cy3-ONs without delivery system: 18-mer 5′-CTGTGAATCCTCCATGAC-3′ (SEQ ID NO:2), targets rat p53 mRNA, labeled at the 5′-end with Cy3 (DNA, 5' {Cy3}, backbone not given here; listed as Rattus norvegicus)	–	–	22.67 ± 1.7%	–	20%	14.86 ± 1%	15%	24.62 ± 2%	≤ 25%	taken up by a low percentage of neurons	low level of diffuse cellular fluorescence in only a small percent of cells	6%	18.3%	~5%	20.13 ± 1.8%	20%	51.5%	~50%	17%
